Target: T1, Delta-aminolevulinic acid dehydratase (Escherichia coli (strain K12), UniProt P0ACB2)
T1 sequence (P0ACB2 whole entry): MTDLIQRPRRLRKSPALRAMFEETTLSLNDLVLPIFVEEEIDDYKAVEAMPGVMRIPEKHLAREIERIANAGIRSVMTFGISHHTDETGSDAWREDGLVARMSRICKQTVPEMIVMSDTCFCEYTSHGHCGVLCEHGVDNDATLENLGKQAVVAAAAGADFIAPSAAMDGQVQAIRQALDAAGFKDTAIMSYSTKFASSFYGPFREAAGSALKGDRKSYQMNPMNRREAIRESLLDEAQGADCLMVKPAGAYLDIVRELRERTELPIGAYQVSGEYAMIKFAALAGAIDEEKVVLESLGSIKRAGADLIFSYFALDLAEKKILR
Assay: PBGS Assay
Settings: pH 8.1; 37 °C
Description: The PBGS assay is a colorimetric assay based on the reaction between PBG and 4-dimethylaminobenzaldehyde (Ehrlich's reagent).

| SMILES | Ki |
| --- | --- |
| CC(=O)CCC(=O)O [Substrate analogue, 8] | 2.2 mM |
| O=C(O)CCC(=O)CF [Substrate analogue, 9] | 0.085 mM |
| COC(=O)CCC(=O)O [Substrate analogue, 10] | 38.4 mM |
| CNC(=O)CCC(=O)O [Substrate analogue, 12] | 36.4 mM |
| CC(=O)OCC(=O)O [Substrate analogue, 13] | 24.5 mM |
| NCC(=O)OCC(=O)O [Substrate analogue, 14] | 18.2 mM |
| CC(=O)NCC(=O)O [Substrate analogue, 15] | 18.8 mM |
| CC(=O)CC[N+](=O)[O-] [Substrate analogue, 17] | 0.028 mM |
| O=C(CF)CC[N+](=O)[O-] [Substrate analogue, 18] | 0.021 mM |
| COC(=O)CC[N+](=O)[O-] [Substrate analogue, 19] | 1.88 mM |
| O=C(O)CC[N+](=O)[O-] [Substrate analogue, 20] | 44.9 mM |
| COC(=O)CCC(=O)NCC(=O)CCC(=O)O [Substrate analogue, 24] | 0.243 mM |
| COC(=O)CCC(=O)NCC(=O)CC[N+](=O)[O-] [Substrate analogue, 28] | 0.02 mM |
| O=C(O)CCC(=O)CCCCC[N+](=O)[O-] [Substrate analogue, 31] | 4.9 mM |
| O=C(O)CCCCNC(=O)CCC(=O)O [Substrate analogue, 32] | 22.9 mM |
| O=C(O)CCCCNC(=O)CC[N+](=O)[O-] [Substrate analogue, 33] | 18.2 mM |
| O=C(O)CCC(=O)O [Succinic acid, 6] | 12.5 mM |

Source: BindingDB's records for doi:10.1002/1439-7633(20010504)2 (University of NeuchÂTel, 2001)
